# Like-named read-outs stand apart in the source and are kept apart here.
# System: K. pneumoniae
# Assay: MIC of imipenem, ertapenem and meropenem
# Format: cell-based, Klebsiella pneumoniae
# Conditions: Klebsiella pneumoniae, read-out: MIC
structure (smiles),measurement,setting,value
"C[C@@H](O)[C@H]1C(=O)N2C(C(=O)O)=C(S[C@@H]3CN[C@H](C(=O)Nc4cccc(C(=O)O)c4)C3)[C@H](C)[C@H]12 [ETP, ertapenem]",MIC,K. pneumoniae 1 OMA (NDM-1 + CTX-M-15 + OXA-1 + OXA-9),> 32 µg/mL
same,MIC,K. pneumoniae 2 OLA (NDM-1 + OXA-1),6 µg/mL
same,MIC,K. pneumoniae 7 AFR (NDM-1 + OXA-1 + CTX-M-15 + CMY-6 + TEM-1),> 32 µg/mL
same,MIC,"K. pneumoniae 7AFR, NDM-1 + TEM-1 + CTX-M-15 + CMY-6 + OXA-1",> 32 µg/mL
same,MIC,"K. pneumoniae 0227, SHV-1, non-carbapenemase producer",0.008 µg/mL
same,MIC,"K. pneumoniae 588, KPC-2 + TEM-1 + SHV-11 + OXA-9",32 µg/mL
same,MIC,"K. pneumoniae 1022, SHV-2a + SHV-28, non-carbapenemase producer",0.016 µg/mL
same,MIC,K. pneumoniae 1025 (CTX-M-14 + TEM-1 + SHV-11),0.016 µg/mL
same,MIC,"K. pneumoniae 1025, CTX-M-14 + TEM-1 + SHV-11, non-carbapenemase producer",0.016 µg/mL
same,MIC,"K. pneumoniae 2303, KPC-2 + SHV-11",> 32 µg/mL
same,MIC,K. pneumoniae 6642 GEN (NDM-1 + CTX-M-15 + OXA-1 + OXA-10),16 µg/mL
same,MIC,"K. pneumoniae 6642 GEN, NDM-1 + CTX-M-15 + OXA-1 + OXA-10",16 µg/mL
same,MIC,K. pneumoniae 6759 GEN (NDM-1 + CTX-M-15 + OXA-1 + OXA-9 + OXA-10 + CMY16),> 32 µg/mL
same,MIC,"K. pneumoniae 6759 GEN, NDM-1 + CTX-M-15 + CMY-16 + OXA-1 + OXA-9 + OXA-10",> 32 µg/mL
same,MIC,K. pneumoniae 7725 (SHV-1),0.006 µg/mL
same,MIC,"K. pneumoniae 7725, SHV-1, non-carbapenemase producer",0.006 µg/mL
same,MIC,"K. pneumoniae 10112, CTX-M-15 + TEM-1 + SHV-11, non-carbapenemase producer",0.016 µg/mL
same,MIC,"K. pneumoniae 0404020, VIM-1+ SHV-5",> 32 µg/mL
same,MIC,"K. pneumoniae 0404024, VIM-1",> 32 µg/mL
same,MIC,"K. pneumoniae 0511135, VIM-1+ SHV-12",> 32 µg/mL
same,MIC,K. pneumoniae 648236 (SHV-2a),2 µg/mL
same,MIC,"K. pneumoniae 648236, SHV-2a, non-carbapenemase producer, porin deficiency",2 µg/mL
same,MIC,"K. pneumoniae 0709121, IMP-1",3 µg/mL
same,MIC,"K. pneumoniae 0709124, IMP-1 + TEM-15",3 µg/mL
same,MIC,"K. pneumoniae 0709125, IMP-1 + TEM-1 + SHV-12",4 µg/mL
same,MIC,"K. pneumoniae 0709127, IMP-1 + TEM-1",4 µg/mL
same,MIC,"K. pneumoniae A28006, KPC-2 + TEM-1 + CTX-M-2 + SHV-11",24 µg/mL
same,MIC,"K. pneumoniae A33504, KPC-2 + TEM-1 + SHV-11 + CTX-M-2 + OXA-9",> 32 µg/mL
same,MIC,"K. pneumoniae AEL, OXA-48 + CTX-M-15 + SHV-28 + OXA-1",6 µg/mL
same,MIC,K. pneumoniae ALE (CTX-M-15 + SHV-1),> 32 µg/mL
same,MIC,"K. pneumoniae ALE, CTX-M-15 + SHV-1, non-carbapenemase producer, porin deficiency",> 32 µg/mL
same,MIC,K. pneumoniae AMS (OXA-48 + TEM-1 + CTX-M-15 + OXA-1),2 µg/mL
same,MIC,"K. pneumoniae AMS, OXA-48 + TEM-1 + CTX-M-15 + OXA-1",2 µg/mL
same,MIC,K. pneumoniae BAJ (OXA-48 + TEM-1 + CTX-M-15 + SHV-28),1.5 µg/mL
same,MIC,"K. pneumoniae BAJ, OXA-48 + TEM-1 + CTX-M-15 + SHV-28",1.5 µg/mL
same,MIC,K. pneumoniae BED (CTX-M-15 + TEM-1 + SHV-1; Table 8: SHV-11),> 32 µg/mL
same,MIC,"K. pneumoniae BED, CTX-M-15 + TEM-1 + SHV-11, non-carbapenemase producer, porin deficiency",> 32 µg/mL
same,MIC,K. pneumoniae BEL (OXA-48),4 µg/mL
same,MIC,"K. pneumoniae BEL, OXA-48",4 µg/mL
same,MIC,K. pneumoniae BEN (OXA-48 + TEM-1 + CTX-M-15 + SHV-28),1 µg/mL
same,MIC,"K. pneumoniae BEN, OXA-48 + TEM-1 + CTX-M-15 + SHV-28",1 µg/mL
same,MIC,K. pneumoniae BER (TEM-1 + SHV-28),4 µg/mL
same,MIC,"K. pneumoniae BER, SHV-28 + TEM-1, non-carbapenemase producer, porin deficiency",4 µg/mL
same,MIC,K. pneumoniae BEY (OXA-48 + CTX-M-15 + TEM-1),0.38 µg/mL
same,MIC,"K. pneumoniae BEY, OXA-48 + TEM-1 + CTX-M-15",0.38 µg/mL
same,MIC,K. pneumoniae BIC (OXA-48),2 µg/mL
same,MIC,"K. pneumoniae BIC, OXA-48",2 µg/mL
same,MIC,"K. pneumoniae BOU, OXA-48",0.5 µg/mL
same,MIC,K. pneumoniae CHA (OXA-48 + TEM-1),1 µg/mL
same,MIC,"K. pneumoniae CHA, OXA-48 + TEM-1",1 µg/mL
same,MIC,K. pneumoniae COL (KPC-2 + TEM-1 + SHV-1 + CTX-M-15),4 µg/mL
same,MIC,K. pneumoniae COO (CTX-M-15 + SHV28),> 32 µg/mL
same,MIC,"K. pneumoniae COO, CTX-M-15 + SHV-28, non-carbapenemase producer, porin deficiency",> 32 µg/mL
same,MIC,K. pneumoniae DAL (OXA-48 + CTX-M-15 + TEM-1),2 µg/mL
same,MIC,"K. pneumoniae DAL, OXA-48 + TEM-1 + CTX-M-15",2 µg/mL
same,MIC,"K. pneumoniae DIA, OXA-48 + TEM-1b + CTX-M-15 + SHV-11 + OXA-1",> 32 µg/mL
same,MIC,"K. pneumoniae DUW, OXA-48 + TEM-1 + CTX-M-15 + SHV-28",32 µg/mL
same,MIC,K. pneumoniae EGY (OXA-48 + CTX-M-15),3 µg/mL
same,MIC,"K. pneumoniae EGY, OXA-48 + CTX-M-15",3 µg/mL
same,MIC,K. pneumoniae ELK (OXA-48 + TEM-1 + CTX-M-15 + SHV-11),3 µg/mL
same,MIC,"K. pneumoniae ELK, OXA-48 + TEM-1 + CTX-M-15 + SHV-11",3 µg/mL
same,MIC,"K. pneumoniae ENN, VIM-1+ SHV-5",1.5 µg/mL
same,MIC,K. pneumoniae FOS (CTX-M-15 + TEM-1 + SHV-11),> 32 µg/mL
same,MIC,"K. pneumoniae FOS, CTX-M-15 + TEM-1 + SHV-11, non-carbapenemase producer, porin deficiency",> 32 µg/mL
same,MIC,"K. pneumoniae GES, KPC-2 + TEM-1 + SHV-11",12 µg/mL
same,MIC,K. pneumoniae HOL (OXA-181 + CTX-M-15),4 µg/mL
same,MIC,"K. pneumoniae HOL, OXA-181 + CTX-M-15",4 µg/mL
same,MIC,"K. pneumoniae HPA, OXA-48 + TEM-1 + CTX-M-15 + OXA-1",> 32 µg/mL
same,MIC,K. pneumoniae IND (NDM-1 + OXA-1 + CTX-M-15),8 µg/mL
same,MIC,"K. pneumoniae KAM, KPC-3 + TEM-1 + SHV-11",12 µg/mL
same,MIC,K. pneumoniae KDH (DHA-2),0.5 µg/mL
same,MIC,"K. pneumoniae KI2, NDM-1 + CTX-M-15 + OXA-1",8 µg/mL
same,MIC,"K. pneumoniae KIE, NDM-1 + SHV-38 + CMY-16 + OXA-10",2 µg/mL
same,MIC,K. pneumoniae KPN (CTX-M-15),0.12 µg/mL
same,MIC,"K. pneumoniae KPN, CTX-M-15, non-carbapenemase producer",0.012 µg/mL
same,MIC,K. pneumoniae LEG (CTX-M-15 + TEM-1 + SHV-12),> 32 µg/mL
same,MIC,"K. pneumoniae LEG, CTX-M-15 + TEM-1 + SHV-12, non-carbapenemase producer, porin deficiency",> 32 µg/mL
same,MIC,K. pneumoniae LIB (OXA-48),> 32 µg/mL
same,MIC,"K. pneumoniae LIB, OXA-48",16 µg/mL
same,MIC,"K. pneumoniae LIE, KPC-2 + TEM-2 + OXA-9",> 32 µg/mL

# From patent publication US9328374B2, “Selective culture medium and method for detecting carbapenem-resistant bacteria in a test sample” (Institut National de la Sante et de la Recherche Medicale …, priority 2011, dated 2016)
